Assay results as given in publication PMC11768289 (Pharmaceuticals, 2025).
Where two headings read alike, the source gives them in different places.

Key:
[1] = Cell viability assay (MTS) in non-infected cells; details: human
[2] = system: A549/ACE2/TMPRSS2 cells; test: Cell viability assay (MTS) in non-infected cells
[3] = system: SARS-CoV-2 isolate USA-WA1/2020; test: microbe, parasite or virus in culture; format: cell-based; details: for inhibition at 2.1 µM: Conc. 2.1 µM (0.4 × CC50); for EC50: read-out: SARS-CoV-2 EC50
[4] = molecular target: T1, p97 (Homo sapiens, UniProt P55072); test: p97 biochemical assay (ATPase activity, PNP/MesG coupled); details: 0.2 mM ATP, 5 min preincubation; for inhibition at 0.1 µM: read-out: p97 Inhib. (%) at 0.10 µM, compound 0.10 µM; for inhibition at 1 µM: read-out: p97 Inhib. (%) at 1.0 µM, compound 1.0 µM; for p97 Inhib. (%) at 0.10 µM: compound 0.10 µM
T1 construct: made in house

[5] = Severe acute respiratory syndrome coronavirus 2, A549-ACE2, 48 h, read-out: SARS-CoV-2 Inhib. (%)
[6] = tested at 0.4 × CC50, or at 50 µM if CC50 higher than 100 µM, A549/ACE2/TMPRSS2
[7] = Severe acute respiratory syndrome coronavirus 2, A549/ACE2/TMPRSS2, MOI 0.01, 48 h, mean ± standard error, read-out: SARS-CoV-2 Inhib. (%)
[8] = Severe acute respiratory syndrome coronavirus 2, A549-ACE2, 48 h
[9] = Severe acute respiratory syndrome coronavirus 2, Conc. 50 µM, A549/ACE2/TMPRSS2, MOI 0.01, 48 h, mean ± standard error, read-out: SARS-CoV-2 Inhib. (%)

T1 sequence (P55072 whole entry): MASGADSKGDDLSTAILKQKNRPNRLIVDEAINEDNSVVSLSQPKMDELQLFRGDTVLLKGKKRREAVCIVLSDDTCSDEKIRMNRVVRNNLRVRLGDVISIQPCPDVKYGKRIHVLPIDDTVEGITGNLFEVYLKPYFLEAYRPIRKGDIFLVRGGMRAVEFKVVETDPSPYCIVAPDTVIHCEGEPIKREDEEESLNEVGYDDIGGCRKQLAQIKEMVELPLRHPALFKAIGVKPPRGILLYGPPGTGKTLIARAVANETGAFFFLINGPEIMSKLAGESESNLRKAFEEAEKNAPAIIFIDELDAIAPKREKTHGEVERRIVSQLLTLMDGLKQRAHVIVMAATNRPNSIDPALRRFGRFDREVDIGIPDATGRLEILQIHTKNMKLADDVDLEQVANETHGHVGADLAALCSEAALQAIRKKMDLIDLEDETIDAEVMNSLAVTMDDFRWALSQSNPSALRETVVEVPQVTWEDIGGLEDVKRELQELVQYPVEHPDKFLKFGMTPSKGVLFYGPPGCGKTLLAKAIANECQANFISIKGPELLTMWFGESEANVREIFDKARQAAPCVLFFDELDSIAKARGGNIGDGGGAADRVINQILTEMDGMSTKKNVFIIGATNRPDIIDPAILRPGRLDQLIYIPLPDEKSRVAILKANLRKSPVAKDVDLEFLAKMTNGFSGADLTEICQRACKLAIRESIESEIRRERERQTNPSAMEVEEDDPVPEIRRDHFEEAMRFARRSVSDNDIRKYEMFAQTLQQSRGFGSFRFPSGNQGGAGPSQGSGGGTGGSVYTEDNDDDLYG

Row | SMILES | CC50 at 48 h [1] [µM] | anti-SARS-CoV-2 activity (in words) [3, 6] | inhibition at 0.1 µM [4] [%] | inhibition at 1 µM [4] [%] | also measured
1 | Cc1cc2c(C(N)=O)cccc2n1-c1nc2c(c(NCc3ccccc3)n1)COCC2 [CB-5083, reference compound] | 0.95 | – | – | – | CC50 ([2]; non-infected A549/ACE2/TMPRSS2 cells, MTS, 48 h): highly toxic; anti-SARS-CoV-2 activity (in words) [3]: minimal inhibition; inhibition at 0.38 µM [3, 5]: 6 ± 4%
2 | CC#CC(=O)Nc1cccc2c1cc(C)n2-c1nc2c(c(NCc3ccccc3)n1)CCCC2 [Compound 6a, reference compound] | – | minimal inhibition | 57 | 97 | inhibition at 0.22 µM ([3]; Severe acute respiratory syndrome coronavirus 2, Conc. 0.22 µM (0.4 × CC50), A549/ACE2/TMPRSS2, MOI 0.01, 48 h, mean ± standard error, read-out: SARS-CoV-2 Inhib. (%)): 6 ± 3%
3 | CC#CC(=O)Nc1cccc2c1cc(C)n2-c1nc2c(c(NCc3ccccc3)n1)COCC2 [Compound 6b, reference compound] | – | minimal inhibition | 38 | 95 | inhibition at 0.46 µM ([3]; Severe acute respiratory syndrome coronavirus 2, Conc. 0.46 µM (0.4 × CC50), A549/ACE2/TMPRSS2, MOI 0.01, 48 h, mean ± standard error, read-out: SARS-CoV-2 Inhib. (%)): 5%
4 | CC#CC(=O)Nc1cccc2c1cc(C)n2-c1nc(NCc2ccccc2)cc(N2CCOCC2)n1 [Compound 8a, N-(1-(4-(Benzylamino)-6-morpholinopyrimidin-2-yl)-2-methyl-1H-indol-4-yl)but-2-ynamide] | 2.4 | – | ~90 | 97 | inhibition at 0.96 µM [3, 5]: 3 ± 5%
5 | C=CC(=O)Nc1cccc2c1cc(C)n2-c1nc(NCc2ccccc2)cc(N2CCOCC2)n1 [Compound 8b, N-(1-(4-(Benzylamino)-6-morpholinopyrimidin-2-yl)-2-methyl-1H-indol-4-yl)acrylamide] | 5.2 | – | 77 | 96 | inhibition at 2.1 µM [3, 7]: 5 ± 8%
6 | C=CS(=O)(=O)Nc1cccc2c1cc(C)n2-c1nc(NCc2ccccc2)cc(N2CCOCC2)n1 [Compound 8c, N-(1-(4-(Benzylamino)-6-morpholinopyrimidin-2-yl)-2-methyl-1H-indol-4-yl)ethenesulfonamide] | 5.2 | – | 65 | 89 | inhibition at 2.1 µM [3, 7]: 8 ± 3%
7 | CC#CC(=O)Nc1cccc2c1cc(C)n2-c1nc(NCc2ccccc2)cc(N2CCCCC2)n1 [Compound 9a, N-(1-(4-(Benzylamino)-6-(piperidin-1-yl)pyrimidin-2-yl)-2-methyl-1H-indol-4-yl)but-2-ynamide] | 76 | excellent antiviral activity | > 90 | 100 | EC50 [3, 8]: 6.7 ± 0.8 µM; inhibition at 30 µM [3, 5]: 98%; p97 Inhib. (%) at 0.10 µM [4]: 94%
8 | C=CC(=O)Nc1cccc2c1cc(C)n2-c1nc(NCc2ccccc2)cc(N2CCCCC2)n1 [Compound 9b, N-(1-(4-(Benzylamino)-6-(piperidin-1-yl)pyrimidin-2-yl)-2-methyl-1H-indol-4-yl)acrylamide] | – | markedly reduced | 64 | 91 | inhibition at 50 µM [3, 9]: 28 ± 3%
9 | C=CS(=O)(=O)Nc1cccc2c1cc(C)n2-c1nc(NCc2ccccc2)cc(N2CCCCC2)n1 [Compound 9c, N-(1-(4-(Benzylamino)-6-(piperidin-1-yl)pyrimidin-2-yl)-2-methyl-1H-indol-4-yl)ethenesulfonamide] | 15 | marginal inhibition | 73 | 95 | inhibition at 5.9 µM [3, 5]: 0%
10 | CC#CC(=O)Nc1cccc2c1cc(C)n2-c1nc(NCc2ccccc2)cc(C2CCCCC2)n1 [Compound 10a, N-(1-(4-(Benzylamino)-6-cyclohexylpyrimidin-2-yl)-2-methyl-1H-indol-4-yl)but-2-ynamide] | > 100 | excellent antiviral activity | ~90 | 100 | EC50 [3, 8]: 6.8 ± 0.6 µM; inhibition at 50 µM [3, 5]: 96 ± 1%
11 | C=CC(=O)Nc1cccc2c1cc(C)n2-c1nc(NCc2ccccc2)cc(C2CCCCC2)n1 [Compound 10b, N-(1-(4-(Benzylamino)-6-cyclohexylpyrimidin-2-yl)-2-methyl-1H-indol-4-yl)acrylamide] | > 100 | markedly reduced | 70 | 96 | inhibition at 50 µM [3, 9]: 30 ± 9%
12 | C=CS(=O)(=O)Nc1cccc2c1cc(C)n2-c1nc(NCc2ccccc2)cc(C2CCCCC2)n1 [Compound 10c, N-(1-(4-(Benzylamino)-6-cyclohexylpyrimidin-2-yl)-2-methyl-1H-indol-4-yl)ethenesulfonamide] | 12 | marginal inhibition | 68 | 95 | inhibition at 4.8 µM ([3]; Severe acute respiratory syndrome coronavirus 2, Conc. 4.8 µM (0.4 × CC50), A549/ACE2/TMPRSS2, MOI 0.01, 48 h, mean ± standard error, read-out: SARS-CoV-2 Inhib. (%)): 7 ± 3%
13 | Cc1cc2c(C(N)=O)cccc2n1-c1nc(NCc2ccccc2)cc(C2CCCCC2)n1 [Compound 12] | – | – | 18 | 21 | p97 Inhib. (%) at 1.0 µM ([4]; compound 1.0 µM): minimal inhibition
14 | Cc1cc(OCc2nnc(SC3CCCC3)n2-c2cccnc2)ccc1-c1ccc(S(C)(=O)=O)cc1 [NMS-873, reference compound] | 4.1 | minimal inhibition | 5 | 84 | fold less toxic than CB-5083 ([2]; A549/ACE2/TMPRSS2 cells, relative to CB-5083): approximately 4 fold; inhibition at 1.6 µM ([3]; Severe acute respiratory syndrome coronavirus 2, Conc. 1.6 µM (0.4 × CC50), A549/ACE2/TMPRSS2, MOI 0.01, 48 h, mean ± standard error, read-out: SARS-CoV-2 Inhib. (%)): 0%; p97 Inhib. (%) at 0.10 µM [4]: poor inhibition
15 | CCC(CC)COC(=O)[C@H](C)N[P@](=O)(OC[C@H]1O[C@@](C#N)(c2ccc3c(N)ncnn23)[C@H](O)[C@@H]1O)Oc1ccccc1 [remdesivir, reference compound] | > 10 | – | – | – | EC50 [3, 8]: 0.044 µM; inhibition at 2 µM [3, 5]: 100%
